In publication PMC5760849 (2017):

Key:
[1] = tested on: (G4C2)4 RNA G-Q, dual-labelled (RNA, G4) GGGGCCGGGGCCGGGGCCGGGGCC; test: FRET melting; conditions: Na+ (10 mM sodium cacodylate); pH 7.35; compound 2 μM; screening threshold, exact value only in figure
[2] = tested on: (G4C2)4 RNA (CD) (RNA, G4) GGGGCCGGGGCCGGGGCCGGGGCC; test: CD, induced signal 350–550 nm; conditions: Na+ (10 mM sodium cacodylate); pH 7.35; RNA 1 μM; compound 2 μM

N=C(N)c1ccc(-c2ccc(-c3ccc(-c4ccc(C(=N)N)cn4)[se]3)[se]2)nc1 was tested, and the ΔTm [1] was > 13 °C and the binding [2] was “yes”.
N=C(N)c1ccc(-c2ccc(-c3ccc(-c4ccc(C(=N)N)cn4)o3)o2)nc1 was tested, and the ΔTm [1] was > 13 °C and the binding [2] was “yes”.
For N=C(N)c1ccc(-c2ccc(-c3ccc(-c4ccc(C(=N)N)cn4)s3)s2)nc1, the ΔTm [1] was > 13 °C and the binding [2] was “yes”.
